Tests used:
[1] = system: blend of Pseudomonas aeruginosa ATCC 15442, Staphylococcus aureus ATCC 6538, Escherichia coli ATCC 10536, Enterococcus hirae ATCC 10541 and Candida albicans …; assay: Antimicrobial activity, zone of inhibition on TSA Petri dishes (Example 4); format: cell-based; conditions: aqueous solution pH 8.3, [Ag+]=0.1%, 100 μl, 37° C. for 24 h
Description: The antimicrobial activity of an aqueous solution at pH 8.3 of Na^+3[Ag^+(MPA^2−)2]^3− with an ionic concentration of [Ag+]=0.1% was tested against the following blend of microorganism strains (bought from Diagnostic International Distribution S.p.A): Pseudomonas aeruginosa ATCC 15442, Staphylococcus aureus ATCC 6538, Escherichia coli ATCC 10536, Enterococcus hirae ATCC 10541 e Candida albicans ATCC 10231. For each microbial strain, the concentration of the blend was in the range 1.5×10^12−5×10^12 unity forming colonies (UFC). A volume of 100 μl of the blend was seeded in Petri dishes containing a non-selective culture medium TSA (Tryptone Soya Agar) and a sample of 100 μl of said aqueous solution of Na^+3[Ag^+(MPA^2−)2]^3− was put in the centre of each Petri dish in contact with the microbial blend. The Petri dishes were then incubated at 37° C. for 24 h.

[2] = system: SARS-Cov-2; assay: Cytopathic effect in VeroE6 cells infected with treated SARS-Cov-2, optical microscopy
[3] = system: SARS-Cov-2; assay: Antiviral effectiveness towards SARS-Cov-2: virus incubated on treated surface, replication in VeroE6 cells by qRT-PCR; format: cell-based; conditions: for ΔCt / Logarithmic difference: Ag+ 0.108% aqueous solution on surface; for ΔCt: vs untreated; for Logarithmic difference: vs untreated control

Structure (SMILES): Cc1nc([S-])sc1CC(=O)[O-].Cc1nc([S-])sc1CC(=O)[O-].[Ag+].[Na+].[Na+].[Na+] [Aqueous solution containing Ag, Na^+3[Ag^+(MPA^2−)2]^3−]
- zone of inhibition (of the microbial growth) [1]: circa 3 cm
- cytopathic effect ([2]; Ag+ 0.002%, 72 hours post-infection): small decrease of the cytopathic effect
- cytopathic effect compared to cells infected with untreated virus ([2]; Ag+ 0.108%, 48 hours post-infection): lower cytopathic effect
- ΔCt ([3]; virus 5 minutes, 24 hpi): 3.04
- Logarithmic difference ([3]; virus 5 minutes, 24 hpi): −0.91
- ΔCt ([3]; virus 5 minutes, 48 hpi): 1.91
- Logarithmic difference ([3]; virus 5 minutes, 48 hpi): −0.57
- ΔCt ([3]; virus 5 minutes, 72 hpi): 0.61
- Logarithmic difference ([3]; virus 5 minutes, 72 hpi): −0.18
- reduction of the viral charge ([3]; Ag+ 0.108%, at a time more distant from the infection): not significant
- decrease of the viral charge ([3]; Ag+ 0.108%, virus 5 minutes, 48 pci): 0.57 logarithms
- decrease of the viral charge ([3]; Ag+ 0.108%, virus 5 minutes, 24 h post-infection): 0.91 logarithms
- reduction of the viral charge ([3]; diluted aqueous solution, Ag+ 0.002%, virus 5 minutes, 24 hours post-infection): 0.82 logarithms

— patent publication US20240315241A1, “ANTIMICROBIAL POLYMERIC COMPOSITION” (priority 2021, published 2024)
